According to patent publication US11802135B2, “Lysophosphatidic acid derivative” (MITSUBISHI TANABE PHARMA CORPORATION, priority 2021, dated 2023):
Counter-ions that a name gives are not always drawn. Like-named read-outs stand apart in the source and are kept apart here.

What was measured:
[1] = target: T1, human LPA1 receptor (Homo sapiens, UniProt Q92633); test: LPA1/SRE-luc reporter assay in RH7777 cells stably expressing human LPA1 receptor and SRE-Luc2; type: cell-based
T1 construct: expressed in transfected cells; host or cells: rat hepatocellular carcinoma cell line RH7777 (made 'similarly' to the LPA4 line)
Protocol: (§1) A stably expressing cell line that constantly expresses the human LPA4 receptor and SRE-Luc2 was established by the gene targeting introduction method of the rat hepatocellular carcinoma cell line RH7777 into rRosa26 site. Similarly, stably expressing cell lines for human LPA1 receptor and SRE-Luc2 were also established. Each cell line was seeded on a collagen-coated dish and maintained in culture, and cells were collected with trypsin EDTA and the required number (5×10^3 cells/well) was seeded on a 96-well plate. After culturing overnight at 37° C., LPA (Avanti Polar Lipids, Inc.) or each Example compound diluted with an assay medium added or not added with BSA was added, and the cells were cultured at 37° C. for 6 hr. Thereafter, a luciferase detection reagent (Bright-Glo, Promega) was added, and the chemiluminescence amount was quantified with an Envision (registered trade mark) multi-label counter (PerkinElmer) and used as an index of agonist activity.
(§2) The EC50 value of LPA or each Example compound was calculated using the […] Graph pad Prism for Windows ver.5.02 and ver.7.04. % Emax was expressed as the ratio of the maximum response (Emax) of LPA or each Example compound to the maximum response (Emax) of the positive control compound VPC 31144S (N-{(1S)-2-hydroxy-1-[(phosphonooxy)methyl]ethyl}(9Z) cctadec-9-enamide), with the Emax of the positive control compound VPC 31144S as 100%.

[2] = target: T2, human LPA4 receptor (Homo sapiens, UniProt Q99677); test: LPA4/SRE-luc reporter assay in RH7777 cells stably expressing human LPA4 receptor and SRE-Luc2; type: cell-based
T2 construct: expressed in transfected cells; host or cells: rat hepatocellular carcinoma cell line RH7777, targeted integration at the rRosa26 site
Protocol: as §1, §2

[3] = BSA added, read-out: LPA1/SRE-luc EC50
[4] = BSA added, read-out: LPA4/SRE-luc EC50
[5] = RH7777, BSA added, Emax of positive control VPC 31144S as 100%, read-out: LPA4/SRE-luc % Emax
[6] = BSA not added, read-out: LPA1/SRE-luc EC50
[7] = BSA not added, read-out: LPA4/SRE-luc EC50
[8] = RH7777, BSA not added, Emax of positive control VPC 31144S as 100%, read-out: LPA4/SRE-luc % Emax
[9] = RH7777, read-out: LPA4/SRE-luc % Emax

T1 sequence (Q92633 whole entry): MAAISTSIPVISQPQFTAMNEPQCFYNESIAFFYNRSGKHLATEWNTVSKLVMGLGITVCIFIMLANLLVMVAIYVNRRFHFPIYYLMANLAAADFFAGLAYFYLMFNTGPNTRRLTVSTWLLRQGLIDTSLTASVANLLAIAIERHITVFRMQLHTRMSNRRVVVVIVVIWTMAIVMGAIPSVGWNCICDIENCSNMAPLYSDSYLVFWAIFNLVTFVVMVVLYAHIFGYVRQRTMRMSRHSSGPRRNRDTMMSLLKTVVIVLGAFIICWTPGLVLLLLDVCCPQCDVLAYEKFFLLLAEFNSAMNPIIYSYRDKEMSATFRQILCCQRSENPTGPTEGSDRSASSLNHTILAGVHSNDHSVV
T2 sequence (Q99677 whole entry): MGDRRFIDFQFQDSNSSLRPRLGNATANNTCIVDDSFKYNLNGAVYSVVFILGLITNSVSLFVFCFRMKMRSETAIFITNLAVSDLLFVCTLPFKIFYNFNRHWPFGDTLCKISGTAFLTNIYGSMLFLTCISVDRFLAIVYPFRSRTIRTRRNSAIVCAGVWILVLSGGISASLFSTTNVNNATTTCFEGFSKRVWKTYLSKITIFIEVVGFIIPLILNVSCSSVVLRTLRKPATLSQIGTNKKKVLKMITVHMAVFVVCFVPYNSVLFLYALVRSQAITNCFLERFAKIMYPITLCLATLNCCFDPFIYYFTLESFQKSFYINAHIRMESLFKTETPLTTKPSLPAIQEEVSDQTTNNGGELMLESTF

EC50 [1, 3] [nM]	EC50 [2, 4] [nM]	Emax [2, 5] [%]	EC50 [1, 6] [nM]	EC50 [2, 7] [nM]	Emax [2, 8] [%]	Structure (SMILES)	also measured
> 10000	47	121	–	–	–	CCCc1ccc(CCCCCCCCC(=O)N(CCOP(=O)(O)O)Cc2cncs2)cc1 [Example compound 102, 2-{[9-(4-Propylphenyl)nonanoyl] (1,3-thiazol-5-ylmethyl)amino}ethyl dihydrogen phosphate ammonium salt]	–
> 10000	50	97	–	–	–	O=C(CCCCCCCCc1ccc(C2CC2)cc1)N1CC(OP(=O)(O)O)C1 [Example compound 87, 1-[9-(4-Cyclopropylphenyl)nonanoyl]azetidin-3-yl dihydrogen phosphate ammonium salt]	–
> 10000	< 41	101	–	–	–	CCCCCCCCCCCOc1cccc(-c2ccnc(NC[C@@H](C)OP(=O)(O)O)c2)c1 [Example compound 133, (2R)-1-({4-[3-(Undecyloxy)phenyl]pyridin-2-yl}amino)propan-2-yl dihydrogen phosphate]	–
> 10000	< 41	136	–	–	–	CCCCCCCCCCOc1cccc(CCC(=O)N(CCOP(=O)(O)O)Cc2cccc(OC)c2)c1 [Example compound 95, 2-[{3-[3-(Decyloxy)phenyl]propanoyl}(3-methoxybenzyl)amino]ethyl dihydrogen phosphate ammonium salt]	–
–	–	–	> 10000	< 41	280	CC(C)c1ccc(CCCCCCCCC(=O)N2CC(OP(=O)(O)O)C2)cc1 [Example compound 66, 1 {9-[4-(Propan-2-yl)phenyl]nonanoyl}azetidin-3-yl dihydrogen phosphate]	–
–	–	–	> 10000	< 41	86	CCCCCCCc1ccc(CCCCC(=O)N2CC(OP(=O)(O)O)C2)cc1 [Example compound 59, 1-[5-(4-Heptylphenyl)pentanoyl]azetidin-3-yl dihydrogen phosphate ammonium salt]	–
> 10000	< 41	114	–	–	–	COc1ccc(CN(CCOP(=O)(O)O)C(=O)CCCCc2ccc(OCCc3ccc(OC(F)(F)F)cc3)cc2)cc1 [Example compound 115, 2-{(4-Methoxybenzyl)[5-(4-{2-[4-(trifluoromethoxy)phenyl]ethoxy}phenyl)pentanoyl]amino}ethyl dihydrogen phosphate ammonium salt]	–
> 10000	43	103	–	–	–	CCCCCCCCCCCOc1cccc(-c2ccnc(N[C@@H]3CCC[C@@H]3OP(=O)(O)O)c2)c1 [Example compound 142, (1S,2R)-2-({4-[3-(Undecyloxy)phenyl]pyridin-2-yl}amino)cyclopentyl dihydrogen phosphate ammonium salt]	–
> 10000	< 41	114	–	–	–	CCCCCCc1ccc(CCCCCCCCC(=O)N2CC(OP(=O)(O)O)C2)cc1 [Example compound 118, 1-[9-(4-Hexylphenyl)nonanoyl]azetidin-3-yl dihydrogen phosphate]	–
> 10000	< 41	120	–	–	–	COc1ccc(CN(CCOP(=O)(O)O)C(=O)CCCCCc2cccc(CCCCC3CCCCC3)c2)cc1 [Example compound 129, 2-[{6-[3-(4-Cyclohexylbutyl)phenyl]hexanoyl}(4-methoxybenzyl)amino]ethyl dihydrogen phosphate ammonium salt]	–
–	–	–	> 10000	< 41	106	CCCCCCCCCCOc1cccc(CCC(=O)N(CCOP(=O)(O)O)Cc2ccc(OC)cc2)c1 [Example compound 54, 2-[{3-[3-(Decyloxy)phenyl]propanoyl}(4-methoxybenzyl)amino]ethyl dihydrogen phosphate ammonium salt]	–
> 10000	40	108	–	–	–	CCCCCCCc1ccc(CCCCC(=O)N2CC(OP(=O)(O)O)C2)c(C(F)(F)F)c1 [Example compound 100, 1-{5-[4-Heptyl-2-(trifluoromethyl)phenyl]pentanoyl}azetidin-3-yl dihydrogen phosphate ammonium salt]	–
> 10000	< 41	113	–	–	–	O=C(CCCCCCCCc1ccc(C2CCCCC2)cc1)N1CC(OP(=O)(O)O)C1 [Example compound 93, 1-[9-(4-Cyclohexylphenyl)nonanoyl]azetidin-3-yl dihydrogen phosphate]	–

Second part, the molecule before the results:

Structure (SMILES)	EC50 [1, 3] [nM]	EC50 [2, 4] [nM]	Emax [2, 5] [%]	EC50 [1, 6] [nM]	EC50 [2, 7] [nM]	Emax [2, 8] [%]	also measured
CCCCCCCCCOc1ccc(CCC(=O)N2CC[C@@H](OP(=O)(O)O)C2)cc1 [Example 20, (3R)-1-{3-[4-(Nonyloxy)phenyl]propanoyl}pyrrolidin-3-yl dihydrogen phosphate ammonium salt]	–	–	–	> 10000	20	153	–
CCCCCCCCCOc1ccc(CCC(=O)N2CC(OP(=O)(O)O)C2)cc1 [Example 1, 1-{3-[4-(Nonyloxy)phenyl]propanoyl}azetidin-3-yl dihydrogen phosphate ammonium salt]	–	–	–	> 10000	28	119	–
CCCCCCc1ccc(CCCCC(=O)N2CC(OP(=O)(O)O)C2)cc1 [Example 7, 1-[5-(4-Hexylphenyl)pentanoyl]azetidin-3-yl dihydrogen phosphate]	–	–	–	> 10000	37	125	–
CCCCCCCCc1cccc(CCCCCCCC(=O)N2CC(OP(=O)(O)O)C2)c1 [Example compound 43, 1-[8-(3-Octylphenyl)octanoyl]azetidin-3-yl dihydrogen phosphate ammonium salt]	–	–	–	> 10000	27	86	–
CCCCCCCCCCOc1cccc(CCC(=O)N(CCOP(=O)(O)O)CC(C)C)c1 [Example 33, 2-[{3-[3-(Decyloxy)phenyl]propanoyl}(2-methylpropyl)amino]ethyl dihydrogen phosphate ammonium salt]	–	–	–	> 10000	33	121	–
CCCc1ccc(CCCCCCCC(=O)N2CC(OP(=O)(O)O)C2)cc1 [Example 15, 1-[8-(4-Propylphenyl)octanoyl]azetidin-3-yl dihydrogen phosphate]	–	–	–	> 10000	42	75	–
CCc1ccc(CCCCCCCCC(=O)N2CC[C@@H](OP(=O)(O)O)C2)cc1 [Example 24, (3R)-1-[9-(4-Ethylphenyl)nonanoyl]pyrrolidin-3-yl dihydrogen phosphate ammonium salt]	–	–	–	> 10000	5.6	138	–
CCCCCCCCCCOc1cccc(CCC(=O)N2CC[C@@H](OP(=O)(O)O)C2)c1 [Example 18, (3R)-1-{3-[3-(Decyloxy)phenyl]propanoyl}pyrrolidin-3-yl dihydrogen phosphate ammonium salt]	–	–	–	> 10000	1.9	122	–
Cc1ccc(CCCCCCCCCC(=O)N2CC(OP(=O)(O)O)C2)cc1 [Example 10, 1-[10-(4-Methylphenyl)decanoyl]azetidin-3-yl dihydrogen phosphate]	–	–	–	> 10000	30	–	Emax [2, 9]: 101%
Cc1ccc(CCc2ccc(CCCC(=O)N3CC[C@@H](OP(=O)(O)O)C3)cc2)cc1 [Example 29, (3R)-1-(4-{4-[2-(4-Methylphenyl)ethyl]phenyl}butanoyl)pyrrolidin-3-yl dihydrogen phosphate ammonium salt]	–	–	–	> 10000	45	145	–
CCCCCCCCOc1ccc(CCCC(=O)N2CC(OP(=O)(O)O)C2)cc1 [Example 26, 1-{4-[4-(Octyloxy)phenyl]butanoyl}azetidin-3-yl dihydrogen phosphate]	–	–	–	> 10000	10	–	Emax [2, 9]: 125%
CCCCCCCCCCOc1cccc(CCC(=O)N(CCCCCO)CCOP(=O)(O)O)c1 [Example compound 50, 2-[{3-[3-(Decyloxy)phenyl]propanoyl}(5-hydroxypentyl)amino]ethyl dihydrogen phosphate ammonium salt]	–	–	–	> 1000	23	79	–
O=C(CCCCc1cccc(OCCCCC2CCCCC2)c1)N1CC(OP(=O)(O)O)C1 [Example compound 88, 1-{5-[3-(4-Cyclohexylbutoxy)phenyl]pentanoyl}azetidinyl dihydrogen phosphate ammonium salt]	> 10000	20	152	–	–	–	–
CCCCCCCCCCCOc1cccc(-c2ccnc(NC[C@@H](C)OP(O)(O)=S)c2)c1 [Example compound 138, O-[(2R)-1-({4-[3-(Undecyloxy)phenyl]pyridin-2-yl}amino)propan-2-yl] dihydrogen phosphorothioate-ammonium salt]	–	–	–	–	–	–	EC50 [1]: > 10000 nM; EC50 [2]: < 41 nM; Emax [2, 9]: 73%
